Experimental data from PMC12738788, “Structural snapshots of Pseudomonas aeruginosa LptB2FG and LptB2FGC reveal insights into lipopolysaccharide recognition and transport” (Nature Communications, 2025).
Several values for one entry are separate records, joined by “and”; a condition that tells them apart may be missing. Equal entries are not always repeated.

Legend:
[1] = test system: P. aeruginosa LptB2FGC; assay: Native MS: CDL added to LptB2FG(C):Re-LPS complex (competition); type: binding, Pseudomonas aeruginosa; conditions: Re-LPS 1 uM + CDL 2.5 uM
Experimental: In particular, we chose 14:0 CDL to be consistent with the 14 carbon lipid tails of Re-LPS, and incubated this with the LptB2FG/LptB2FGC complex, we could observe ~ 50% of LptB2FGC bound to CDL at 2.5 μM concentration (Fig. 5b). Apparent KD calculation indicated a similar trend when comparing LptB2FG and LptB2FGC interaction with CDL to that of LPS (Supplementary Fig. S18). […] We set out to test whether CDL influences LPS binding to LptB2FGC. To this end, we added increasing concentrations of CDL (1.0 to 5 μM) to a solution containing LptB2FG(C):Re-LPS complex (Supplementary Fig. S19).
Purified LptB2FG(C) was buffer exchanged into MS Buffer (200 mM ammonium acetate + 0.04% (w/v) [G1]-OGD) using a centrifugal buffer exchange device (Micro Bio-Spin 6, Bio-Rad) as previously described. The freshly buffer-exchanged protein was kept on ice, with protein concentration measured as before. […] Data were analysed using the Xcalibur 3.0 (Thermo Scientific), NaViA[64], and UniDec (www.unidec.chem.ox.ac.uk)[65] software packages. […]
Peak intensities were extracted using UniDec, and the ratios of the intensity of the ligand bound peak versus the total intensity of all observed species were calculated. The apparent dissociation constant (KD) values for individual lipid-binding events to LptB2FG and LptB2FGC were calculated through a sequential lipid-binding model using a previously described Python script. […]

[2] = test system: P. aeruginosa LptB2FG; assay: Native MS lipid binding to LptB2FG; parameters: species or system Pseudomonas aeruginosa; conditions: for 1x lipid_Ratio / 2x lipid_Ratio / 3x lipid_Ratio / 4x lipid_Ratio / Apo_Ratio: 3 μM protein
Experimental: (§1) Purified LptB2FG(C) was buffer exchanged into MS Buffer (200 mM ammonium acetate + 0.04% (w/v) [G1]-OGD) using a centrifugal buffer exchange device (Micro Bio-Spin 6, Bio-Rad) as previously described. The freshly buffer-exchanged protein was kept on ice, with protein concentration measured as before. The protein samples were diluted as desired in 200 mM ammonium acetate buffer with detergent as necessary and loaded into a gold-coated capillary Clark borosilicate capillary (Harvard Apparatus) prepared in the laboratory. The experiments were performed using a Q Exactive UHMR Hybrid Quadrupole-Orbitrap mass spectrometer (Thermo Fisher Scientific). Typically, 2 μl of buffer-exchanged protein solution was electrosprayed in negative polarity from in-house prepared gold-coated borosilicate capillaries. The instrument parameters used for data collection were: capillary voltage 1.1 kV, S-lens RF 100%, quadrupole selection from 1000 to 20,000 m/z range, HCD collision energy 200–300 V, source fragmentation 0 V, in-source trapping 200–300 V in negative mode. The ion transfer optics was set as follows: injection flatapole − 5 V, inter-flatapole lens − 4 V, bent flatapole − 2 V, transfer multipole 0 V. The resolution of the instrument was 8750 at m/z = 200 (transient time of 64 ms), argon pressure in the HCD cell was maintained at approximately at 8 × 10^–10 mbar and source temperature was kept at 200 °C. The noise level was set at 3 rather than the default value of 4.64. Calibration of the instruments was performed using 10 mg/ml solution of caesium iodide in water. Where required, baseline subtraction was performed to achieve a better-quality mass spectrum. Data were analysed using the Xcalibur 3.0 (Thermo Scientific), NaViA[64], and UniDec (www.unidec.chem.ox.ac.uk)[65] software packages.
(§2) Lipid and nucleotide binding experiments were performed by diluting them in 200 mM ammonium acetate supplemented with 0.04% [G1]-OGD. Native MS experiments were performed at a total LptB2FG(C) protein concentration of 3 μM.
(§3) Peak intensities were extracted using UniDec, and the ratios of the intensity of the ligand bound peak versus the total intensity of all observed species were calculated. The apparent dissociation constant (KD) values for individual lipid-binding events to LptB2FG and LptB2FGC were calculated through a sequential lipid-binding model using a previously described Python script. When necessary, a Welch’s T-test was used to evaluate statistically significant differences and data were plotted using GraphPad Prism 8.0. Error bars in the plots indicate standard deviation, and all experiments were performed in triplicate (n = 3).

[3] = test system: P. aeruginosa LptB2FGC; assay: Native MS lipid binding to LptB2FGC; parameters: species or system Pseudomonas aeruginosa; conditions: for 1x lipid_Ratio / 2x lipid_Ratio / 3x lipid_Ratio / 4x lipid_Ratio / Apo_Ratio: 3 μM protein
Experimental: as §1, §2, §3

[4] = target: P. aeruginosa LptB with a C-terminal 6 x His-tag (P. aeruginosa); assay: cryo-EM structure; LptB2FG/LptB2FGC co-expressed, co-purified and delipidated, reconstituted in MSP1D1 nanodiscs with E. coli total extract lipid; 20 mM Tris-HCl pH 7.5, 100 mM NaCl; substrate-free; three LptB2FG and two LptB2FGC conformations from one sample
[5] = target: P. aeruginosa LptB with a C-terminal 6 x His-tag (P. aeruginosa); assay: non-reducing SDS-PAGE; SDS-PAGE gel of the purified complex, run under non-reducing conditions
[6] = target: P. aeruginosa LptB with a C-terminal 6 x His-tag (P. aeruginosa); assay: native MS; complex co-expressed and purified by the His tag on LptB (IMAC, SEC), exchanged into 200 mM ammonium acetate + 0.04% (w/v) [G1]-OGD; negative polarity
[7] = first lipid-binding event, sequential lipid-binding model, native MS, read-out: apparent dissociation constant KD(1)

For `CCCCCCCCCCCCCC(=O)OC[C@H](COP(=O)(O)OCC(O)COP(=O)(O)OC[C@@H](COC(=O)CCCCCCCCCCCCC)OC(=O)CCCCCCCCCCCCC)OC(=O)CCCCCCCCCCCCC` (stereo partly shown) [CDL, 1’,3’-bis[1,2-dimyristoyl-sn-glycero-3-phospho]-glycerol], the “1x CDL” value [1] was 0.1327 and 0.2003 and 0.1609, the “2x CDL” value [1] was 0 and the “1x lipid_Ratio” value ([2]; 0.25 μM lipid) was 0.1443 and 0.1705 and 0.1602. For the same molecule, the “2x lipid_Ratio” value ([2]; 0.25 μM lipid) was 0, the “3x lipid_Ratio” value ([2]; 0.25 μM lipid) was 0 and the “4x lipid_Ratio” value ([2]; 0.25 μM lipid) was 0. The Apo_Ratio ([2]; 0.25 μM lipid) was 0.8557 and 0.8295 and 0.8398, the “1x lipid_Ratio” value ([2]; 0.5 μM lipid) was 0.199 and 0.1911 and 0.2318 and the “2x lipid_Ratio” value ([2]; 0.5 μM lipid) was 0. For the same molecule, the “3x lipid_Ratio” value ([2]; 0.5 μM lipid) was 0, the “4x lipid_Ratio” value ([2]; 0.5 μM lipid) was 0 and the Apo_Ratio ([2]; 0.5 μM lipid) was 0.801 and 0.8089 and 0.7682. The “1x lipid_Ratio” value ([2]; 1 μM lipid) was 0.2261 and 0.2185 and 0.1754, the “3x lipid_Ratio” value ([2]; 1 μM lipid) was 0 and the “4x lipid_Ratio” value ([2]; 1 μM lipid) was 0. The Apo_Ratio ([2]; 1 μM lipid) was 0.7468 and 0.7118 and 0.7769, the “1x lipid_Ratio” value ([2]; 1.25 μM lipid) was 0.2786 and 0.2616 and 0.2584 and the “2x lipid_Ratio” value ([2]; 1.25 μM lipid) was 0.04833 and 0.04258 and 0.08199. For the same molecule, the “3x lipid_Ratio” value ([2]; 1.25 μM lipid) was 0, the “4x lipid_Ratio” value ([2]; 1.25 μM lipid) was 0 and the Apo_Ratio ([2]; 1.25 μM lipid) was 0.6731 and 0.6958 and 0.6596. For the same molecule, the “1x lipid_Ratio” value ([2]; 2.5 μM lipid) was 0.3458 and 0.3529 and 0.3561, the “2x lipid_Ratio” value ([2]; 2.5 μM lipid) was 0.07878 and 0.07812 and 0.08017 and the “3x lipid_Ratio” value ([2]; 2.5 μM lipid) was 0. The “4x lipid_Ratio” value ([2]; 2.5 μM lipid) was 0, the Apo_Ratio ([2]; 2.5 μM lipid) was 0.5754 and 0.569 and 0.5638 and the “1x lipid_Ratio” value ([2]; 5 μM lipid) was 0.4041 and 0.3985 and 0.4061. For the same molecule, the “2x lipid_Ratio” value ([2]; 5 μM lipid) was 0.2783 and 0.2976 and 0.263, the “3x lipid_Ratio” value ([2]; 5 μM lipid) was 0.07217 and 0.104 and 0.096 and the “4x lipid_Ratio” value ([2]; 5 μM lipid) was 0. The Apo_Ratio ([2]; 5 μM lipid) was 0.2455 and 0.1999 and 0.2349, the Kd [2, 7] was 4.8 ± 0.14 µM and the “1x lipid_Ratio” value ([3]; 0.25 μM lipid) was 0.1955 and 0.2067 and 0.2427. For the same molecule, the “2x lipid_Ratio” value ([3]; 0.25 μM lipid) was 0, the “3x lipid_Ratio” value ([3]; 0.25 μM lipid) was 0 and the “4x lipid_Ratio” value ([3]; 0.25 μM lipid) was 0. For the same molecule, the Apo_Ratio ([3]; 0.25 μM lipid) was 0.8045 and 0.7933 and 0.7573, the “1x lipid_Ratio” value ([3]; 0.5 μM lipid) was 0.236 and 0.2635 and 0.2763 and the “2x lipid_Ratio” value ([3]; 0.5 μM lipid) was 0. For the same molecule, the “3x lipid_Ratio” value ([3]; 0.5 μM lipid) was 0, the “4x lipid_Ratio” value ([3]; 0.5 μM lipid) was 0 and the Apo_Ratio ([3]; 0.5 μM lipid) was 0.764 and 0.7365 and 0.7237. For the same molecule, the “1x lipid_Ratio” value ([3]; 1 μM lipid) was 0.2764 and 0.2872 and 0.3074, the “2x lipid_Ratio” value ([3]; 1 μM lipid) was 0.0846 and 0.07455 and 0.1186 and the “3x lipid_Ratio” value ([3]; 1 μM lipid) was 0. The “4x lipid_Ratio” value ([3]; 1 μM lipid) was 0, the Apo_Ratio ([3]; 1 μM lipid) was 0.639 and 0.6382 and 0.574 and the “1x lipid_Ratio” value ([3]; 1.25 μM lipid) was 0.3498 and 0.3261 and 0.3766. For the same molecule, the “3x lipid_Ratio” value ([3]; 1.25 μM lipid) was 0, the “4x lipid_Ratio” value ([3]; 1.25 μM lipid) was 0 and the Apo_Ratio ([3]; 1.25 μM lipid) was 0.545 and 0.5422 and 0.5586. The “1x lipid_Ratio” value ([3]; 2.5 μM lipid) was 0.3774 and 0.3613 and 0.3792, the “2x lipid_Ratio” value ([3]; 2.5 μM lipid) was 0.1928 and 0.1837 and 0.1898 and the “3x lipid_Ratio” value ([3]; 2.5 μM lipid) was 0.07276 and 0.06329 and 0.08767. The “4x lipid_Ratio” value ([3]; 2.5 μM lipid) was 0, the Apo_Ratio ([3]; 2.5 μM lipid) was 0.3571 and 0.3916 and 0.3434 and the “1x lipid_Ratio” value ([3]; 5 μM lipid) was 0.2708 and 0.2286 and 0.261. For the same molecule, the “2x lipid_Ratio” value ([3]; 5 μM lipid) was 0.3089 and 0.3049 and 0.3123, the “3x lipid_Ratio” value ([3]; 5 μM lipid) was 0.1993 and 0.2344 and 0.2124 and the “4x lipid_Ratio” value ([3]; 5 μM lipid) was 0.08447 and 0.1259 and 0.09283. For the same molecule, the Apo_Ratio ([3]; 5 μM lipid) was 0.1365 and 0.1062 and 0.1214 and the Kd [3, 7] was 3.07 ± 0.09 µM.
With “P. aeruginosa LptB with a C-terminal 6 x His-tag (natural protein)” the stoichiometry N [4] was 2, the stoichiometry N [5] was 2 and the stoichiometry N [6] was 2.
In the case of `CCCCCCCCCCC[C@@H](O)CC(=O)N[C@H]1[C@H](OC[C@H]2O[C@H](OP(=O)(O)O)[C@H](NC(=O)C[C@H](O)CCCCCCCCCCC)[C@@H](OC(=O)C[C@H](O)CCCCCCCCCCC)[C@@H]2O)O[C@H](CO)[C@@H](OP(=O)(O)O)[C@@H]1OC(=O)C[C@H](O)CCCCCCCCCCC` [lipid IVA], the “apo fraction of LptB2FG” value ([2]; pre-delipidation, ClearColi-expressed complex, lipid IVA sole LPS-related species) is reported as ~ 60% and the “lipid IVA occupancy of LptB2FGC” value ([3]; pre-delipidation, ClearColi-expressed complex, with 2× adducts) is reported as ~ 80%.
